Assays:
[1] = Comparison of effects on growth in intact male and female White Leghorn chickens (Study II, Table 1); format: in vivo; settings: for 6-week Body Weight Change / 12-week Body Weight Change / 12-week Shank-Toe Length Change: 1.0-cm implant, vs cholesterol control, (decrease); for 6-week Body Weight / 12-week Body Weight (final) / 12-week Shank-Toe Length: 1.0-cm s.c. implant
Description: The single comb White Leghorn strain (Dekalb XL) of chicken (Avian Services, Frenchtown, N.J.) was used in all studies. Chicks were obtained on the day following hatch and were then maintained in a well ventilated, temperature- and humidity-controlled animal room. Chicks were housed in temperature-controlled (access to small brood chambers--32° to 35° C.), wire-floored, 5-tier brooder batteries (measuring 0.74 W×1.55 L×0.27 H m per tier) until termination of respective studies. A 12 hour light:12 hour dark photoperiod was maintained at all times within the animal room. Feed and water were available ad libitum, with a standard commercial diet (Agway; Bordentown, N.J.), chick starter mash, fed to chicks 1 to 42 days of age, and then from 43 to 84 days, grower mash was provided (manufacturer statement on ration compositions are shown in Table 2).
In all studies, chicks were rank-ordered by weight, wing-banded and distributed into treatment groups of equal body weights at 14 days of age. Excluding Study I, e.g., in which male, female and castrate male comparisons were made, all control groups were implanted with 1.0-cm length cholesterol-filled Silastic polysiloxane implants (i.e., steroid surface exposure of 1.0-cm; actual length was 2.0-cm with 1/2 cm wood dowel plugs placed at each end of implant). The remaining treatment groups consisted of chicks (male, female or castrated male) implanted with either testosterone-, 5-alpha-DHT-, 5-beta-DHT-, estradiol-17-beta-, or 19-nortestosterone-filled Silastic polysiloxane implants with steriod surface exposures of either 0.3, 1.0 or 3.0 cm in length. Steroid implants were prepared by manually packing respective crystalline steroids (Steraloids; Wilton, N.H.) into Silastic Medical Grade tubing (1.57 mm i.d.; Dow Corning) (Smith et al., 1977). The amounts of steroid contained in the implants were as follows (mean±SEM of 20 randomly chosen implants, 5 for each steroid): 2.6±0.2 mg (0.3-cm), 8.9±0.4 mg (1.0-cm), and 29.2±0.7 mg 3.0-cm). At the time of group assignment, implants were placed in the subcutaneous (S.C.) layer of skin behind the neck. Supplemental steroid implants (containing doses of steroids equivalent to those of the initial implants) were implanted at 6 and 10 weeks of age, without removal of prior implants, to ensure adequate androgen replacement with increasing growth. Cage floors and fecal collection trays were checked for 2 consecutive days following each implantation session to ensure completeness of procedure. […] An outline of individual studies along with experimental treatments (i.e., type and dose of steroid) and number of birds per treatment group is given in Table 3.
Body weight and shank-toe length (King, 1969; combined length of metatarsus and longest toe which is an estimate of bone growth) were measured at weekly (or biweekly in Study I) intervals from the beginning through the end of each study. At the termination of studies I (12 weeks of age), III (12 weeks of age), IV (12 weeks of age) and V (6 weeks of age), several organs were excised and immediately weighed at necropsy. Relative tissue weights (percent of final body weight) and body weight minus [comb plus wattle weights] (i.e., final adjusted body weight) were also calculated. Excluding Study I, biweekly blood samples were obtained by venipuncture of the wing vein from the same individual birds for respective treatments. After centrifugation of whole blood, plasma was removed and stored at -20° C. until hormone assays were performed.
^a Steroid treatments entailed the subcutaneous implantation (between
the shoulders) of 1.0 cm length, silastic implants (crystalline steroids
at 2, 6 and 10 weeks of age.)

[2] = Growth promotion and feed efficiency in turkeys (summary in words); format: in vivo
Description: A presently preferred dosage in the form of such a subcutaneous implant is at least about 20 mg, with a dosage of about 50 mg being highly suitable. It has been found suitable to administer the 19-nortestosterone subcutaneously, for example, below the ear of the turkey, using conventional implanting devices. The dosage can be administered in the form of an implant device which releases the 19-nortestosterone slowly in a desired constant rate, over a period of time such a about 21 days or more. Desirably, the implant can be in the form of a capsule enveloping the 19-nortestosterone which provides the desired slow, constant release or in the form of a polymer mass pellet having encapsulated or dispersed therein 19-nortestosterone so as to permit by diffusion or slow dissolution release subcutaneously and subsequent systemic absorption. It has been found suitably to use silicone rubber as a polymeric encapsulating material.
It is a natural compound.

Compound: C[C@]12CC[C@H]3[C@@H](CCC4=CC(=O)CC[C@@]43C)[C@@H]1CC[C@@H]2O [Testosterone, testosterone]
- 6-week Body Weight Change ([1]; intact female): 5.8%
- 12-week Body Weight Change ([1]; intact female): 5.1%
- 12-week Shank-Toe Length Change ([1]; intact female): 2.6%
- 6-week Body Weight ([1]; intact female): 553 ± 11 g
- 12-week Body Weight (final) ([1]; intact female): 1067 ± 22 g
- 12-week Shank-Toe Length ([1]; intact female): 14.7 ± 0.09 cm
- 6-week Body Weight Change ([1]; intact male): 9.4%
- 12-week Body Weight Change ([1]; intact male): 8.6%
- 12-week Shank-Toe Length Change ([1]; intact male): 3.1%
- 6-week Body Weight ([1]; intact male): 585 ± 13 g
- 12-week Body Weight (final) ([1]; intact male): 1275 ± 27 g
- 12-week Shank-Toe Length ([1]; intact male): 16.5 ± 0.17 cm

Compound: C[C@]12CC[C@H]3[C@@H](CCC4=CC(=O)CC[C@@H]43)[C@@H]1CC[C@@H]2O [19-Nortestosterone, 19-nortestosterone]
- results compared with testosterone in turkeys ([2]; Table IV and Table V): unexpectedly superior advantages
- relative amount of fat mass ([2]; turkey carcass): a lower relative amount of fat mass
- growth rate and feed efficiency ([2]; turkeys): an increase in growth rate and feed efficiency
- muscle mass ([2]; turkeys): an increase in muscle mass
- results in turkeys compared with 19-nortestosterone in chickens ([2]; vs chickens (Table III)): unexpectedly superior results

Compound: C[C@]12CCC(=O)C[C@@H]1CC[C@@H]1[C@@H]2CC[C@]2(C)[C@@H](O)CC[C@@H]12 [5-alpha-DHT, 5-alpha-dihydrotestosterone]
- results when used instead of 19-nortestosterone ([2]; turkeys): unexpectedly beneficial results
- 6-week Body Weight Change ([1]; intact female): 9.9%
- 12-week Body Weight Change ([1]; intact female): 6.5%
- 12-week Shank-Toe Length Change ([1]; intact female): 3.3%
- 6-week Body Weight ([1]; intact female): 529 ± 12 g
- 12-week Body Weight (final) ([1]; intact female): 1051 ± 15 g
- 12-week Shank-Toe Length ([1]; intact female): 14.6 ± 0.12 cm
- 6-week Body Weight Change ([1]; intact male): 17.2%
- 12-week Body Weight Change ([1]; intact male): 16.1%
- 12-week Shank-Toe Length Change ([1]; intact male): 7.0%
- 6-week Body Weight ([1]; intact male): 535 ± 27 g
- 12-week Body Weight (final) ([1]; intact male): 1171 ± 50 g
- 12-week Shank-Toe Length ([1]; intact male): 15.9 ± 0.24 cm

Reference: patent US5208032A, “Increasing the growth of turkeys using implant of 19-nortestosterone” (Rutgers, The State University of New Jersey, priority 1992, dated 1993)
